Test results: the METLIN SMRT retention time set (Domingo-Almenara et al. 2019)

Test: gradient 5% acetonitrile 3 min, to 50% in 2 min, to 85% in 15 min, held 3 min, 100 µL/min
Settings: column: Zorbax Extend-C18 2.1 x 50 mm; eluents: water / acetonitrile, 0.1% formic acid
How it was run: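 Using water and acetonitrile that each contained 0.1% formic acid, mixtures of ~100 pure standards were separated at 100 μL/min on a Zorbax Extend-C18 column (2.1 × 50 mm, 1.8 μm). The HPLC fed a quadrupole time-of-flight mass spectrometer working in positive and negative ionization mode, with dead and dwell volumes of 40 μL and 900 μL. Data were acquired over 3 months. Retention time was read from computationally picked adduct peaks after manual inspection of each.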

SMILES	RP-LC retention time
COc1ccc(C(O)Cn2ccn3nc(-c4cc(C)ccc4C)cc3c2=O)cc1OC (stereo unspecified)	879 s
C=CCNC(=O)c1cc2n(n1)CCCC2	646 s
CCOc1ccc2nc(Nc3ncc4c(n3)CC(c3ccc(C)cc3)CC4=O)nc(C)c2c1 (stereo unspecified)	886 s
Cc1ccc2nc(-c3cccc(Cl)c3)c(Nc3ccc4c(c3)OCO4)n2c1	746 s
CN(Cc1ccccc1)C(=O)C(=O)c1c[nH]c2ccccc12	800 s
CCOCc1nc(C2CCCN(C(=O)NC3CCCCC3)C2)no1 (stereo unspecified)	804 s
CC(C(=O)N1CCN(Cc2ccc3c(c2)OCO3)CC1)n1c2ccccc2c2cnn(C)c(=O)c21 (stereo unspecified)	669 s
O=C(c1cccs1)N1CCC(n2c(-c3ccoc3)nc3cccnc32)C1 (stereo unspecified)	685 s
CCn1nnc(NCc2ccc(-c3ccc(Br)cc3Cl)o2)n1	1120 s
Cc1ccc(-c2nc(CN3CCN(C(=O)NC4CCCC4)CC3)c(C)o2)cc1	677 s
Cc1cc(C)cc(N2CCC(NC(=O)c3sccc3C)C2=O)c1 (stereo unspecified)	916 s
CC(C)c1ccc(NC(=O)C2CCCN(C(=O)C3Sc4ccccc4NC3=O)C2)cc1 (stereo unspecified)	913 s
Cc1cc(S(=O)(=O)N2C[C@@H](F)C[C@H]2C(=O)N2CCCCC2)ccc1F	786 s
CC(C)n1cc(C#N)c(N)n1	658 s
O=C(NCC1CCCCC1)C1CCCN(c2nnc3ccc(Cl)cn23)C1 (stereo unspecified)	839 s
Cc1c(C(=O)N2CCN(C(=O)c3ccc(Br)o3)CC2)[nH]c2ccccc12	839 s
Cc1nc2cc3c(cc2n1CC(=O)Nc1ccc(F)c(Cl)c1)OCCO3	690 s
COc1ccc(C(=O)OCCN2CCN(C3=NS(=O)(=O)c4ccccc43)CC2)cc1OC	618 s
Cc1cc(C)cc(Oc2nccn3c(=O)n(CC(=O)NC(C)(C)C)nc23)c1	859 s

SMILES	RP-LC retention time
CC(C)CCNC(=O)c1ccc2ncnc(N3CCCC3)c2c1	635 s
O=C(Cn1nc(N2CCCC2)c2ccccc2c1=O)Nc1ccc(F)c(Cl)c1	1000 s
O=C(C1CCCN(c2nc3ccccc3n3cccc23)C1)N1CCN(c2ccccc2)CC1 (stereo unspecified)	793 s
O=C(CN1C(=O)CCCc2ccccc21)N1CCN(c2ccc(Cl)cc2)CC1	944 s
Cc1cc(Nc2ccc(NC(=O)c3ccc4c(c3)OCO4)cc2)nc(N2CCOCC2)n1	656 s
COc1cc([C@@H]2c3cc4c(cc3[C@H](O)[C@@H](CO)[C@@H]2C(=O)NCc2cc(F)cc(F)c2)OCO4)cc(OC)c1OC	737 s
Cn1c(=O)c(C(=O)N2CCN(c3ccccn3)CC2)nn(-c2ccccc2)c1=O	604 s
CC(C)c1ccc(-c2ccnc3c(C(=O)NCc4cccnc4)cnn23)cc1	723 s
Cc1ccc(C)c(CN2CCCN(c3ncccc3-c3nc(C(C)C)no3)CC2)c1	790 s
Cc1nc2c(sc3nc(-c4ccccc4)ccc32)c(=O)n1CC(=O)NCc1ccccc1	972 s
COc1ccc(N2C(=O)C3N=NN(Cc4nc(-c5ccccc5Cl)no4)C3C2=O)cc1OC (stereo unspecified)	880 s
O=C(Nc1ccccc1)c1cccn1Cc1noc(-c2ccccc2)n1	1020 s
COCc1cn(C2CN(C(=O)c3cc(C)nn3C)C2)nn1	581 s
Cc1csc(-c2ccc(N3CCN(C(=O)c4ccc(F)c(F)c4)CC3)nc2)n1	846 s
Fc1cc(F)cc(-c2nnc(Cc3nc(-c4ccccc4F)no3)o2)c1	1060 s
CCOC(CCNC(=O)CCC(=O)Nc1ccc2nc(N3CCN(C)CC3)cc(C)c2c1)OCC	546 s
CC1=CS/C(=C(/C#N)C(=O)N2CCOCC2)N1c1ccccc1	635 s
N#Cc1cccc(NC(=O)Cn2cccc(-c3nc(-c4ccc(Cl)cc4)no3)c2=O)c1	926 s

Other lines, results leading:

RP-LC retention time	SMILES
667 s	O=C(NC1(N2CCOCC2)CC1)c1ccc(Cl)cc1
1000 s	CCn1cc(-c2nc(C)c(C(=O)NCc3ccc(C)cc3)s2)c2cccnc21
621 s	COc1ccc(S(=O)(=O)N2CC3CN(C(=O)c4ccncc4)CC(C2)O3)cc1
777 s	COc1ccc(-n2nc3c(N4CCCC(C(=O)NCCCc5ccccc5)C4)nnc(C)c3c2C)cc1 (stereo unspecified)
662 s	COc1ccc(CCS(=O)(=O)NCC2(CO)CC2)cc1
960 s	Cc1ccc(-c2nc(Nc3ccccc3F)sc2CC(=O)O)cc1
768 s	COc1ccc(-c2cn3cccnc3n2)cc1NC(=O)c1cc(Br)ccc1Cl
804 s	COc1ccc2c(c1)N(CC(C)CN(C)C)c1ccccc1S2 (stereo unspecified)
627 s	Cn1nc(N2CCCC(NC(=O)c3cccs3)C2)ccc1=O (stereo unspecified)
611 s	O=C(Nc1ccc(F)cc1F)C1(CCO)CCN(c2ncccn2)C1 (stereo unspecified)
684 s	CNC(=O)c1sc2nc(-c3ccccc3)c(NCCCOC)n2c1C
649 s	CN(C)c1ccc(CNC(=O)c2cc3n(n2)CC(C)(C(=O)NC2CCCCCC2)N(C)C3=O)cc1 (stereo unspecified)
717 s	COc1ccc(CCNC(=O)CSc2c[nH]c3ccccc23)cc1OC
801 s	CCOCCCNc1ccc(-c2nnc(-c3ccc(C)cc3)o2)cn1
1070 s	CCc1ccc(CNC(=O)CCC2CCCN(S(=O)(=O)c3ccccc3C)C2)cc1 (stereo unspecified)
778 s	Cc1cccc(C)c1NC(=O)C1CCCN1S(=O)(=O)c1cc2c(cc1Cl)NC(=O)CO2 (stereo unspecified)
754 s	COc1ccc(OC)c(NC(=O)C2CCN(C(=O)C3Sc4ccccc4NC3=O)CC2)c1 (stereo unspecified)
616 s	C=C[C@H]1CN2CC[C@H]1C[C@@H]2[C@@H](O)c1ccnc2ccc(OC)cc12
1090 s	Cc1cccc(OCc2nc(-c3ccc(NS(=O)(=O)c4cccs4)cc3)no2)c1
831 s	CCc1nc(OCC(=O)Nc2ccccc2Cl)c2ccccc2n1
1010 s	Cn1ccc2cc(S(=O)(=O)N3CCCC(C(=O)NC4CCCCCC4)C3)ccc21 (stereo unspecified)
682 s	COc1cc(NC(=O)NCCc2nc3cccnc3n2-c2ccccc2)cc(OC)c1OC
1050 s	CCOc1ccc(CC(=O)N2CCCC2c2nc(-c3ccccc3Cl)no2)cc1OCC (stereo unspecified)
733 s	CC(C)N1CCn2c(nc3cc(C(=O)NCc4cccc(Cl)c4)ccc32)C1=O
909 s	Cc1cc(S(=O)(=O)Nc2ccc3c(c2)CCC(=O)N3CC(C)C)ccc1F
658 s	N#Cc1ccc(CN2CCCC2=O)cc1
993 s	Cc1ccc(S(=O)(=O)CC(=O)Nc2nc(-c3cccc([N+](=O)[O-])c3)cs2)cc1
1060 s	CCN(CC)S(=O)(=O)c1ccc(-n2cnc(C(=O)Nc3cc(C(C)(C)C)ccc3O)c2)cc1
599 s	CN(C)CC1CN(C(=O)COc2ccccc2)CC12CCOCC2 (stereo unspecified)
